Experiments:
[1] = tested on: WT cells (cloned non-cystic kidney tissue cells); test: Concentration-response in primary cultures cloned from non-cystic kidney tissue; assay type: cell-based; settings: 72 hour treatment
Procedure: The concentration-response effects of Compound DBM 228, Compound DBM 308, Compound DBM 101, and Compound DBM 328 were determined in primary cultures derived as ‘clones’ from cystic versus non-cystic kidney tissue. CRC graphs, IC50 values, and the percent maximum inhibition versus lowest doses without effect were calculated with GraphPad Prism software. […] There was also a marked separation in effect between hyperproliferative PKD cells (FIG. 5A and Table 3) and WT cells (FIG. 5B and Table 4).

[2] = tested on: T98G; test: Complementary DBM in vitro profiling: T98G (CNS Cancer); assay type: cell-based
Procedure: (§1) The compounds described herein are effective for inhibiting cellular proliferation in hyperproliferative cell types. To study the effects of these compounds, an assay was developed to differentiate the effects of the compounds on proliferating versus confluent cells. The assay design generates a proliferating density 24 hours after seeding and provides a 3-day active cell growth/doubling window in which to gauge the anti-proliferative effect of the compounds described herein. […] In this 3-day growth window, cell number increases with daily doublings across the 72-hour period (see FIG. 1).
(§2) In each assay design, compounds were added at the 24-hour timepoint after cell seeding. The effect of the compounds, relative to vehicle control and to VelCade (a proteasome inhibitor approved in the U.S. for treating relapsed multiple myeloma and mantle cell lymphoma) as a positive control, was assessed across the 3-day growth window for proliferating cells and on an already near confluent culture of cells for the same time period. Normal cells were handled in the same manner, with some adjustment of seeding density needed in select cases. […]
(§3) Cell number at the end of the assay was determined using the CELLTITER-GLO Luminescent Cell Viability Assay (Promega; Madison, Wis.). The CELLTITER-GLO Luminescent Cell Viability Assay is a homogeneous method of determining the number of viable cells in culture based on quantitation of the ATP present, an indicator of metabolically active cells. IC50 values were calculated. […]
(§4) For a typical screening experiment to identify the compounds, cells were seeded into 96- or 384-well microtiter plates at plating densities pre-determined for each cell line to ensure drug exposure occurs during the proliferative phase well before confluency is reached. […] Values were calculated for each of these three parameters if the level of activity was reached; however, if the effect was not reached or was exceeded, the value for that parameter was expressed as greater or less than the maximum or minimum concentration tested.

[3] = tested on: U118MG; test: Complementary DBM in vitro profiling: U118MG (CNS Cancer); assay type: cell-based
Procedure: as §1, §2, §3, §4

[4] = tested on: COLO 205; test: NCI 60 panel: COLO 205 (Colon Cancer); assay type: cell-based
From the text: (§5) TGI means the drug concentration resulting in total growth inhibition or “cytostasis.” LC50 is the concentration of drug resulting in a 50% reduction in the measured cytosolic ATP at the end of the drug treatment as compared to that at the beginning, indicating a net loss of cells following treatment (cytotoxicity).

[5] = tested on: M14; test: NCI 60 panel: M14 (Melanoma); assay type: cell-based
From the text: as §5

[6] = tested on: tubulin; test: Biochemical tubulin polymerization; settings: FIG. 11C
Procedure: Following 24 hours of treatment with Compound DBM 228, Compound DBM 318, and Compound DBM 328, caspase 3/7 activation in U251MG cells was determined. The detection of caspase 3/7 activation in U251MG cells indicates activation of apoptosis. Tubulin polymerization was determined for Compounds DBM 227, DBM 228, DBM 308, DBM 318, DBM 701, DBM 707, DBM 715, paclitaxel, vincristine, and negative control Compound DBM 328. […] Paclitaxel served as polymerization enhancer control and vincristine served as polymerization inhibitor control.

[7] = tested on: ACHN; test: NCI 60 panel: ACHN (Renal Cancer); assay type: cell-based
From the text: as §5

[8] = tested on: FaDu; test: Complementary DBM in vitro profiling: FaDu (Hypopharyngeal Cancer); assay type: cell-based
Procedure: as §1, §2, §3, §4

[9] = tested on: HS 578T; test: NCI 60 panel: HS 578T (Breast Cancer); assay type: cell-based
From the text: as §5

[10] = tested on: T-47D; test: NCI 60 panel: T-47D (Breast Cancer); assay type: cell-based
From the text: as §5

[11] = tested on: HL-60; test: NCI 60 panel: HL-60 (Leukemia); assay type: cell-based
From the text: as §5

[12] = tested on: SK-MEL-2; test: NCI 60 panel: SK-MEL-2 (Melanoma); assay type: cell-based
From the text: as §5

[13] = tested on: HOP-62; test: NCI 60 panel: HOP-62 (Non-Small Cell Lung Cancer); assay type: cell-based
From the text: as §5

[14] = tested on: SW-620; test: NCI 60 panel: SW-620 (Colon Cancer); assay type: cell-based
From the text: as §5

[15] = tested on: MDA-MB-231; test: NCI 60 panel: MDA-MB-231 (Breast Cancer); assay type: cell-based
From the text: as §5

[16] = tested on: SF-295; test: NCI 60 panel: SF-295 (CNS Cancer); assay type: cell-based
From the text: as §5

[17] = tested on: 786-0; test: NCI 60 panel: 786-0 (Renal Cancer); assay type: cell-based
From the text: as §5

[18] = tested on: A498; test: NCI 60 panel: A498 (Renal Cancer); assay type: cell-based
From the text: as §5

[19] = tested on: MALME-3M; test: NCI 60 panel: MALME-3M (Melanoma); assay type: cell-based
From the text: as §5

[20] = tested on: HT29; test: NCI 60 panel: HT29 (Colon Cancer); assay type: cell-based
From the text: as §5

[21] = tested on: U266; test: Complementary DBM in vitro profiling: U266 (Hematologic Cancer); assay type: cell-based
Procedure: as §1, §2, §3, §4

[22] = read-out: LC50 (the source's name)

COc1ccccc1Nc1nc(-c2cc3cccc(N)c3oc2=O)cs1 [Compound DBM 228]
IC50 [1]: > 100 µM
Max inhibition [1]: 49%
GI50 [2]: 0.467 µM
TGI [2]: 3.97 µM
CC50 [2, 22]: 17.6 µM
GI50 [3]: 2.71 µM
TGI [3]: 7.85 µM
CC50 [3, 22]: > 30 µM
GI50 [4]: 0.337 µM
TGI [4]: 1.8 µM
CC50 [4, 22]: > 100 µM
GI50 [5]: 0.0708 µM
CC50 [5, 22]: 49.9 µM
effect on biochemical tubulin polymerization, in words [6]: modestly inhibited
GI50 [7]: 1.49 µM
TGI [7]: 15.9 µM
CC50 [7, 22]: 42.7 µM
GI50 [8]: 1.4 µM
TGI [8]: 8.74 µM
CC50 [8, 22]: 27.5 µM
GI50 [9]: 13.7 µM
TGI [9]: >100 µM
CC50 [9, 22]: > 100 µM
TGI [10]: 55.9 µM
CC50 [10, 22]: > 100 µM
GI50 [11]: 0.034 µM
TGI [11]: 0.137 µM
CC50 [11, 22]: 0.825 µM
GI50 [12]: 0.086 µM
TGI [12]: 28.4 µM
CC50 [12, 22]: 99.5 µM
GI50 [13]: 0.537 µM
TGI [13]: 44.8 µM
CC50 [13, 22]: > 100 µM
GI50 [14]: 0.064 µM
TGI [14]: >100 µM
CC50 [14, 22]: > 100 µM
GI50 [15]: 1.37 µM
TGI [15]: 12 µM
CC50 [15, 22]: > 100 µM
GI50 [16]: 0.0424 µM
TGI [16]: 1.49 µM
CC50 [16, 22]: 41.5 µM
GI50 [17]: 0.709 µM
TGI [17]: 15.9 µM
CC50 [17, 22]: 89.4 µM
GI50 [18]: 0.0354 µM
TGI [18]: 4.42 µM
CC50 [18, 22]: > 100 µM
GI50 [19]: 16.8 µM
TGI [19]: 49.6 µM
CC50 [19, 22]: > 100 µM
GI50 [20]: 0.308 µM
TGI [20]: 1.6 µM
CC50 [20, 22]: 24.7 µM
GI50 [21]: 0.0796 µM
TGI [21]: 0.116 µM
CC50 [21, 22]: 0.161 µM

Reference: US10369145B2, “Coumarin derivatives and methods of use in treating hyperproliferative diseases” (DISCOVERYBIOMED, INC., priority 2013, dated 2019)
